The test system of one data set is A549 cell line. Put plainly: MTT cell viability, A549 cell line. It is filed as cell-based, human. The conditions noted are these: Homo sapiens, A549 cell line, 24 hours, MTT. The protocol: The above cell lines were plated in 96-well plates at a density of 1×10^4 cells/well for 16 to 20 hours. […] After drug treatment, the cell lines were washed with phosphate-buffered saline (hereinafter referred to PBS), and were replaced with fresh complete RPMI-1640 medium for 2 days. Thereafter, the medium was replaced and the cells were incubated with 0.5 mg/ml of 3-(4,5-dimethylthiazol-2-yl)-2,5-diphenyltetrazolium bromide reagent (hereinafter referred to MTT, Sigma Chemical Co., St. Louis, Mo.) in complete RPMI-1640 medium for 4 hours. The viable cells converted MTT to formazan that generates a blue-purple color when dissolved in dimethyl sulfoxide (hereinafter referred to DMSO). The intensity of formazan was measured at 565 nm using a plate reader (VERSAmax, Molecular Dynamics, Sunnyvale, Calif.). The relative percentage of cell viability was calculated by dividing the absorbance of treated cells by that of the control in each experiment.
(§1) After drug treatment, the cells were washed with PBS and replaced with fresh complete RPMI-1640 medium for 2 days. Thereafter, the medium was replaced and the cells were incubated with 0.5 mg/mL of MTT reagent (Sigma Chemical Co., St. Louis, Mo.) in complete RPMI-1640 medium for 4 hours. The intensity of formazan was measured at 565 nm using a plate reader (VERSAmax, Molecular Dynamics, Sunnyvale, Calif.). The relative percentage of cell viability was calculated by dividing the absorbance of treated cells by that of the control in each experiment.

Data set [1] is described as follows: MTT cell viability, HFL1 normal lung fibroblasts. It is filed as cell-based. The conditions noted are these: human, HFL1 normal lung fibroblast cells, 0 to 40 μM. The protocol: as §1
A further data set concerns the target T1, MARK2 (PAR-1Ba) (Homo sapiens, UniProt Q7KZI7).
T1 construct: purchased Merck Millipore (KinaseProfiler service)
Put plainly: KinaseProfiler assay, MARK2. It is filed as biochemical. The following applies: read-out: KAR value (kinase activity remaining). An excerpt:
(§2) The kinase activity remaining (KAR) value is […] related to kinase activity. […]

For data set [2], the target named is T2, MKNK2 (MAPK-interacting kinase-2) (Homo sapiens, UniProt Q9HBH9).
T2 construct: purchased Merck Millipore (KinaseProfiler service)
Briefly: KinaseProfiler assay, MKNK2. The conditions noted are these: read-out: KAR value (kinase activity remaining). It is filed as biochemical.
Text: as §2

Data set [3] addresses T3, CSNK2A1 (casein kinase-2) (Homo sapiens, UniProt P68400).
T3 construct: purchased Merck Millipore (KinaseProfiler service)
Put plainly: KinaseProfiler assay, CSNK2A1. The following applies: read-out: KAR value (kinase activity remaining). It is filed as biochemical.
Text: as §2

The target in data set [4] is T4, MAPK14 (stress-activated protein kinase-2a) (Homo sapiens, UniProt Q16539).
T4 construct: purchased Merck Millipore (KinaseProfiler service)
Briefly: KinaseProfiler assay, MAPK14. It is filed as biochemical. The following applies: read-out: KAR value (kinase activity remaining).
Text: as §2

The target of data set [5] is T5, STK10 (lymphocyte-oriented kinase) (Homo sapiens, UniProt O94804).
T5 construct: purchased Merck Millipore (KinaseProfiler service)
Briefly: KinaseProfiler assay, STK10. It is filed as biochemical. The following applies: read-out: KAR value (kinase activity remaining).
Text: as §2

Data set [6] addresses T6, FGFR1 (fibroblast growth factor receptor-1) (Homo sapiens, UniProt P11362).
T6 construct: purchased Merck Millipore (KinaseProfiler service)
Briefly: KinaseProfiler assay, FGFR1. It is filed as biochemical. The conditions noted are these: read-out: KAR value (kinase activity remaining).
Text: as §2

In data set [7] the target is T7, RET (product of ret proto-oncogene) (Homo sapiens, UniProt P07949).
T7 construct: purchased Merck Millipore (KinaseProfiler service)
Put plainly: KinaseProfiler assay, RET. It is filed as biochemical. The conditions noted are these: read-out: KAR value (kinase activity remaining).
Text: as §2

The target in data set [8] is T8, SYK (splenic tyrosine kinase) (Homo sapiens, UniProt P43405).
T8 construct: purchased Merck Millipore (KinaseProfiler service)
Put plainly: KinaseProfiler assay, SYK. It is filed as biochemical. The conditions noted are these: read-out: KAR value (kinase activity remaining).
Text: as §2

In data set [9] the target is T9, LIMK1 (LIM motif-containing protein kinase-1) (Homo sapiens, UniProt P53667).
T9 construct: purchased Merck Millipore (KinaseProfiler service)
Put plainly: KinaseProfiler assay, LIMK1. The following applies: read-out: KAR value (kinase activity remaining). It is filed as biochemical.
Text: as §2

For data set [10], the system named is A549 cells. Briefly: Annexin V-PI apoptosis analysis by flow cytometry. The following applies: 10-40 μM for 24 hours. It is filed as cell-based, human. For orientation: Flow cytometry measures light scatter and fluorescence of single cells or particles in a stream.
Method: The Annexin V-PI staining kit (BioVision, Mountain View, Calif.) was used to exam the cells by incubating with fluorescent isothiocyanate (FITC)-conjugated-Annexin V and PI according to the manufacturer's instruction. […] The cells were cultured in 60-mm Petri dish at a density of 7×10^5 cells for 16 to 20 hours. […] The cells were trypsinized and collected by centrifugation at 1500 rpm for 5 minutes. Thereafter, the cells were incubated with 500 μl Annexin V-PI labeling solution (containing 5 μl Annexin V-FITC and 5 μl PI in PBS) at room temperature in the dark for 5 minutes. To avoid cell aggregation, the cell solutions were filtered through a nylon mesh membrane (Becton-Dickinson, San Jose, Calif.). Finally, the samples were analyzed immediately using flow cytometer (FACS Calibur, BD Biosciences, Heidelberg, Germany). The percentage of Annexin V-PI staining cells was quantified from a minimum of 10,000 cells by CellQuest software (BD Biosciences).
Data set [11] deals with A549 cells. Briefly: Cell growth, cell number by hemocytometer. It is filed as cell-based, human. The following applies: 30 μM for 24 hours, then cultured 2-6 days.
Method: The cells were washed with PBS after the treatment. […] The cell number was calculated with hemocytometer.
Data set [12] relates to A549 cells. Briefly: Cell cycle analysis, PI staining and flow cytometry. It is filed as cell-based, human. The following applies: 40 μM, 24 hours, 60.5% before treatment.
Method: After the treatment, the cells were collected and fixed with ice-cold 70% ethanol overnight at −20° C. After centrifugation at 1500 rpm for 5 minutes, the pellets were treated with 4 μg/ml PI solution containing 1% Triton X-100 and 50 μg/ml RNase at 37 °C for 30 minutes in the dark. To avoid cell aggregation, the cell solutions were filtrated through nylon membrane (Becton-Dickinson, San Jose, Calif.). Subsequently, the samples were analyzed by flow cytometry. For each measurement, 10,000 cells were analyzed for DNA content. The percentage of cell cycle phases was quantified by ModFit LT software (Ver. 2.0, Becton-Dickinson).
In data set [13] the test system is survivin. Briefly: RT-PCR of survivin gene expression in A549 cells. It is filed as cell-based, human. The conditions noted are these: 0 to 40 μM, 24 hours. On the procedure:
After the treatment, total cellular RNA was purified by ZR RNA MiniPrep™ (Zymo Research, Irvine, Calif.) according to the manufacturer's protocol. RNA concentrations were determined by spectrophotometry. cDNAs were synthesized by SuperScript™ III reverse transcriptase with oligo (dT)12-18 primer (Invitrogen). Each reverse transcript was amplified with GAPDH as an internal control. Reverse transcription polymerase chain reaction (RT-PCR) was performed by a DNA thermal cycler (Mastercycler gradient, Hamburg, Germany). […] The conditions of RT-PCR are stated as followed: the initial denaturation was performed at 94° C. for 2 minutes, followed by 30 cycles at 94° C. for 30 seconds, 56° C. for 30 seconds, and 72° C. for 40 seconds; and 72° C. for 5 minutes. The PCR products were visualized on 1.2% agarose gels with ethidium bromide staining under UV transillumination, and photograph was taken by a camera DH27-S3 (Medclub, Taoyuan, Taiwan).

The next data set concerns PARP. Briefly: Western blot of cleaved PARP in A549 cells. The following applies: 10-40 μM, 24 hours. Background: In western blotting, separated proteins are transferred to a membrane and probed.
In another data set the test system is caspase 3. Briefly: Western blot of active caspase 3 in A549 cells. The conditions noted are these: 10-40 μM, 24 hours.
The subject of data set [14] is survivin. Put plainly: Western blot of survivin protein expression in A549 cells. The conditions noted are these: 0 to 40 μM, 24 hours.
Method: (§3) The protease inhibitors including 1 μg/ml aprotinin, 0.5 μg/ml leupeptin, and 100 μg/ml 4-(2-aminoethyl)benzenesulfonyl fluoride were added to the cell suspensions. The lysates were vibrated for 30 minutes at 4° C. and centrifuged at 10,000 rpm for 10 minutes. The protein concentrations were determined by the BCA protein assay kit (Pierce, Rockford, Ill.). […] The membranes were blocked overnight at 4° C. using blocking buffer (5% non-fat dried milk in solution containing 50 mM Tris/HCl (pH 8.0), 2 mM CaCl2, 80 mM NaCl, 0.05% Tween 20 and 0.02% sodium azide). The membranes were sequentially hybridized with primary antibody and followed with a horseradish peroxidase-conjugated secondary antibody. The protein bands were visualized on the X-ray film using the enhanced chemiluminescence detection system (PerkinElmer Life and Analytical Sciences, Boston, Mass.). […] To verify equal protein loading and transfer, actin was used as the protein loading control. The gel digitizing software, Un-Scan-It gel (Ver. 5.1, Silk Scientific, Inc., Orem, Utah), was used to analyze the intensity of protein bands on X-ray film.
(§4) A549 cells were plated at a density of 1×10^6 cells per 60-mm Petri dish in complete medium for 16 to 20 hours. […] To verify equal protein loading and transfer, actin was used as the protein loading control.

Each structure is given as a SMILES string. Bounds are passed on as bounds.

T1 sequence (Q7KZI7 1-725 isoform Q7KZI7-4): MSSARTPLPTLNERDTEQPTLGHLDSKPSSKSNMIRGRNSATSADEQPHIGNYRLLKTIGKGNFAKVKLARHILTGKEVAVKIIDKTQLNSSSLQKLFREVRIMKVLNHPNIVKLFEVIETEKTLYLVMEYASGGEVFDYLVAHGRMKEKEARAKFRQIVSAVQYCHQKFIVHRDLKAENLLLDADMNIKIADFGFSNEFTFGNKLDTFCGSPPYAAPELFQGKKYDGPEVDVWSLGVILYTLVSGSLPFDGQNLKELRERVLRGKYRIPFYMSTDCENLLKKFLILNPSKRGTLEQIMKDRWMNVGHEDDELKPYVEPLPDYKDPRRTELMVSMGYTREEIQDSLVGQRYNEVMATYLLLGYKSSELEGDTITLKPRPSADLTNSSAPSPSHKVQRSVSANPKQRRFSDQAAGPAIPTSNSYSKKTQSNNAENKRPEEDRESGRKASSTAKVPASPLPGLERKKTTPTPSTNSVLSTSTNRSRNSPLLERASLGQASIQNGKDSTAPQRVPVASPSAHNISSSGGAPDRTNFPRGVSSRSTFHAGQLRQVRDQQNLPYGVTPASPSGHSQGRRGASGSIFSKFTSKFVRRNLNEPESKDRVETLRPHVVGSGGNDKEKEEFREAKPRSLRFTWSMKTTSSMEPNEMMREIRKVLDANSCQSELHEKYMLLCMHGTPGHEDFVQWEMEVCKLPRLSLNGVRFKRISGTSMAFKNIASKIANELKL
T3 sequence (P68400 whole entry): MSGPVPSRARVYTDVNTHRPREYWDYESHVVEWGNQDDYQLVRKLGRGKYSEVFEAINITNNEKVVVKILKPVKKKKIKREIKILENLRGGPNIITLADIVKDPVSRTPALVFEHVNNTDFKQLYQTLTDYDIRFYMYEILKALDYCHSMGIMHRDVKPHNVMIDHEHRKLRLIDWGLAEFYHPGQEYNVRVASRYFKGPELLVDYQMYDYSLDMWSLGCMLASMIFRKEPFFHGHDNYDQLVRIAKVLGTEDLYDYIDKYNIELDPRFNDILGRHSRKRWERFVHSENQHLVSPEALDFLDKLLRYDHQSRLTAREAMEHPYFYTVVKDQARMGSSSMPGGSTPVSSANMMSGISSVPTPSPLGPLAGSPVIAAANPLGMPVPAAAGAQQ
T5 sequence (O94804 whole entry): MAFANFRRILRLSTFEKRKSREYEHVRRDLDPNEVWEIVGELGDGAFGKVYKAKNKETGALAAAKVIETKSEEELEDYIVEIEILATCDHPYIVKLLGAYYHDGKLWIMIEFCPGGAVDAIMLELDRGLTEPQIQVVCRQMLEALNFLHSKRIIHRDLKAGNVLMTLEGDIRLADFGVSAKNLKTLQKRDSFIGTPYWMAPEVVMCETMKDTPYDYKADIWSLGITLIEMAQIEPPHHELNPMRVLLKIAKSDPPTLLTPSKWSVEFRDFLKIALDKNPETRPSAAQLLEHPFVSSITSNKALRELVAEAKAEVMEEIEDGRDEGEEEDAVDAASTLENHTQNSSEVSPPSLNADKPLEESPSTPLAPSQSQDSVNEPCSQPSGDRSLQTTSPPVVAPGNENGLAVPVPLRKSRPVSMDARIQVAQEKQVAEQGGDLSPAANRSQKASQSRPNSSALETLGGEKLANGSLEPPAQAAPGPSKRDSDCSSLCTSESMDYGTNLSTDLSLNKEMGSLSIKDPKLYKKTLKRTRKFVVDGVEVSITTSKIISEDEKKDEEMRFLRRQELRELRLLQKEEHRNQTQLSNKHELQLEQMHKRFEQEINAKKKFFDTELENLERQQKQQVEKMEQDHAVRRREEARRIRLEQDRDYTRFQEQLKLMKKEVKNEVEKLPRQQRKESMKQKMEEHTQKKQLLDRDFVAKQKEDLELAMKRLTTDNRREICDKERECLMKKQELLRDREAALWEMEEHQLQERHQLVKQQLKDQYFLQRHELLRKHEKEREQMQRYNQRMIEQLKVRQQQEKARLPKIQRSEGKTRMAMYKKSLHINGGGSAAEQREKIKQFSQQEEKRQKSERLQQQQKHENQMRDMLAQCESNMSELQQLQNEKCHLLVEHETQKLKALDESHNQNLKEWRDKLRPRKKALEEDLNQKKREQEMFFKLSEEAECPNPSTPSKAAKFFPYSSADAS
T9 sequence (P53667 whole entry): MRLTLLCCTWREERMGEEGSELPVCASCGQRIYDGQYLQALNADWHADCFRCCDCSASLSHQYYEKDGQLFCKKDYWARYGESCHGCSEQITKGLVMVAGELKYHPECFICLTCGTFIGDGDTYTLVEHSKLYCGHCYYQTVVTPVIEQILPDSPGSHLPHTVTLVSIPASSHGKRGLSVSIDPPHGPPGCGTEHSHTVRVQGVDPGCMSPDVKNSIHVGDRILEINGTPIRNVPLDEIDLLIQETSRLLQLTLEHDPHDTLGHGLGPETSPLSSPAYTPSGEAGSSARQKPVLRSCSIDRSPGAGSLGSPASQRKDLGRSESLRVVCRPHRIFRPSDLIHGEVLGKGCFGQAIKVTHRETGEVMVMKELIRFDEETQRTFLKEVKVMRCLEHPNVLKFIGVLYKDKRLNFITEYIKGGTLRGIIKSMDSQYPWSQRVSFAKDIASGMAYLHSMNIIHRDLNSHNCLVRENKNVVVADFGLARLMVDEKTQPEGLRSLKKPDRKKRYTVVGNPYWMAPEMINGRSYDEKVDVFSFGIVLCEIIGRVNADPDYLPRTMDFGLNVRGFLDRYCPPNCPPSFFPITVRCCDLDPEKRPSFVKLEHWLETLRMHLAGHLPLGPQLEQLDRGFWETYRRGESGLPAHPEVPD
T6 sequence (P11362 22-822): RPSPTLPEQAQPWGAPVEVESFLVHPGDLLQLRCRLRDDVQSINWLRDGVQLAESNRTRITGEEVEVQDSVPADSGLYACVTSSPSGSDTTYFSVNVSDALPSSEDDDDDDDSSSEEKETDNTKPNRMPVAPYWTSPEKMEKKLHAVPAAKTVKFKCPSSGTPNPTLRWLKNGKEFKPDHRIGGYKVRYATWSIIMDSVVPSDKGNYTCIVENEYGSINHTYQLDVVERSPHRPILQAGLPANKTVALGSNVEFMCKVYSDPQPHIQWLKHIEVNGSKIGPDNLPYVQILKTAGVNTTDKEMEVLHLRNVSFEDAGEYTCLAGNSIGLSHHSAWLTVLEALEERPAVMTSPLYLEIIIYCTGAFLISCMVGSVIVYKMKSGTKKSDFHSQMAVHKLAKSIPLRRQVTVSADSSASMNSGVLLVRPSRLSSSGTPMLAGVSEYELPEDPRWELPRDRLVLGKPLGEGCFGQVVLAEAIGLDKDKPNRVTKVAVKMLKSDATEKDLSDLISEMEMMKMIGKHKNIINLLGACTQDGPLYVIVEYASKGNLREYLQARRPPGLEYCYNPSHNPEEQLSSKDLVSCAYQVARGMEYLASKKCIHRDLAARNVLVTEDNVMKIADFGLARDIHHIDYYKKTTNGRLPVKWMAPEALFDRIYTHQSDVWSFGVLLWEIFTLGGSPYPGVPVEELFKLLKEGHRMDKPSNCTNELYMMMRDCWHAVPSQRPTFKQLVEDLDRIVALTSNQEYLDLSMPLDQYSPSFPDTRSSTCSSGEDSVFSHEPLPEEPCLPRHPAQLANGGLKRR
T4 sequence (Q16539 whole entry): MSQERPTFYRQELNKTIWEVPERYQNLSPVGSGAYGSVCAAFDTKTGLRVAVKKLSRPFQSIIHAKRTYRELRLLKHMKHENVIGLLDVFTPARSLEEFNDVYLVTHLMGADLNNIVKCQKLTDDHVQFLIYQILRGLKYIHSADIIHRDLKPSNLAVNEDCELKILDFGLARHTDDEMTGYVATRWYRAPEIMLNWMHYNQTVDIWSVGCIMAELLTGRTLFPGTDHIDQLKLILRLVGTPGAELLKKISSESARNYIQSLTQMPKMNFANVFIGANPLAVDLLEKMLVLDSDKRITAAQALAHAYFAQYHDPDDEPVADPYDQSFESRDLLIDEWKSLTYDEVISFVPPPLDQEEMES
T2 sequence (Q9HBH9 whole entry): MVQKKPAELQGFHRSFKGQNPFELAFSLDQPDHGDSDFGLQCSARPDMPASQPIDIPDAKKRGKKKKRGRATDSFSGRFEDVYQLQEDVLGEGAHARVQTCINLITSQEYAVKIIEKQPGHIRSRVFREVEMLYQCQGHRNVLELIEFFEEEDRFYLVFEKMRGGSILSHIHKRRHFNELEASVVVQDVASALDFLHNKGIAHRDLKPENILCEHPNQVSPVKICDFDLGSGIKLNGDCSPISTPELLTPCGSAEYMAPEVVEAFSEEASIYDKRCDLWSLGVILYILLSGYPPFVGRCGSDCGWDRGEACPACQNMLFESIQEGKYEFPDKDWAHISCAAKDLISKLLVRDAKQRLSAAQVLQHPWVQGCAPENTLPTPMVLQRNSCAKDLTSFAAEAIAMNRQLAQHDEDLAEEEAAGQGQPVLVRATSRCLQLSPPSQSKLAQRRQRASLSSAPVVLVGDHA
Method for PARP: as §3, §4
Method for caspase 3: as §3, §4

For the compound `COc1cc2ncnc(Nc3ccc(F)c(Cl)c3)c2cc1OCCCN1CCOCC1` [Iressa, Gefitinib, reference compound], the viability at 10 µM in the data set with A549 cell line (10 μM) came to 86.7%. In the data set on A549 cell line (20 μM), this compound came in with a viability at 20 µM of 82.1%. Further, the viability at 40 µM in the data set on A549 cell line (40 μM) is 74.3%. The viability at 60 µM in the data set on A549 cell line (60 μM) is 64.6%. In the data set on A549 cell line (80 μM), this compound showed a viability at 80 µM of 60.8%. Moreover, the viability at 24 h in data set [1] is over 30%. Further, the remaining activity at 10 µM at MARK2 (PAR-1Ba) was 86%; in [2], 9%; in data set [3] it was 92%; in [4] it was 20%; in data set [5], 19%; in data set [6], 27%. Besides, the figures for the remaining activity at 10 µM in data set [7], in data set [8] and in data set [9] were 30%, 84% and 76%, respectively. Also, the “average of total apoptosis” value in the data set on A549 cells [10] is recorded as “around 19.6%”. Moreover, the “cell growth of A549 cells” value in the data set on A549 cells [11] was “inhibit cell growth of A549 cells”. Also, the “average percentage of G1 fractions” value in the data set on A549 cells [12] stood at 76.1%. Moreover, the survivin gene expression result in the data set on survivin [13] was “no significant change”. For the same compound, in the data set on PARP, the “cleaved form of PARP” value is “did not induce any significant change of caspase 3 and PARP”. Besides, the “active form of caspase 3” value in the data set with caspase 3 was “did not induce any significant change of caspase 3 and PARP”. The survivin protein expression entry in the data set on survivin [14] is “significantly inhibited surviving protein expression”.

By viability is commonly meant the share of living cells, or the viability signal relative to a control. Low readings indicate more harm to the cells, high ones less harm to the cells.

The record behind these values is patent US9512086B2, “Compound for promoting apoptosis of cancer cells and a pharmaceutical composition containing the same and uses thereof” (National Chiao Tung University, priority 2014, dated 2016).
